Source: US20210045385A1, “PYRIDAZINONE-SUBSTITUTED KETOXIMES AS HERBICIDES” (FMC Corporation, priority 2018, published 2021)

Legend:
Assay type in all cases: in vivo
kochia (Bassia scoparia) [1] = test: Test C postemergence, visual plant response rating
Procedure, shortened: (§1)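 Visual injury on a 0 (no effect) to 100 (complete control) scale versus untreated controls, scored approximately 10 d after treatment under greenhouse conditions. Treatments used surfactant-containing non-phytotoxic solvent formulations, sprayed onto loam–sand soil preemergence or onto one- to two-leaf plants 2–10 cm tall postemergence.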

[2] = system: wheat (Triticum aestivum); test: Test C postemergence, visual plant response rating
Procedure, shortened: as §1

[3] = system: barnyardgrass (Echinochloa crus-galli); test: Test C postemergence, visual plant response rating
Procedure, shortened: as §1

[4] = system: pigweed (Amaranthus retroflexus); test: Test C postemergence, visual plant response rating
Procedure, shortened: as §1

[5] = system: galium (catchweed bedstraw, Galium aparine); test: Test C postemergence, visual plant response rating
Procedure, shortened: as §1

[6] = system: foxtail, giant (giant foxtail, Setaria faberi); test: Test C postemergence, visual plant response rating
Procedure, shortened: as §1

[7] = system: blackgrass (Alopecurus myosuroides); test: Test C postemergence, visual plant response rating
Procedure, shortened: as §1

[8] = system: Italian ryegrass (Lolium mutiflorum); test: Test C postemergence, visual plant response rating
Procedure, shortened: as §1

[9] = system: ragweed (common ragweed, Ambrosia artemisiifolia); test: Test C postemergence, visual plant response rating
Procedure, shortened: as §1

corn (Zea mays) = test: Test C postemergence, visual plant response rating
Procedure, shortened: as §1

kochia (Bassia scoparia) [10] = test: Test C preemergence, visual plant response rating; details: Test C, 0 is no effect, 100 is complete control
Procedure, shortened: as §1

[11] = system: barnyardgrass (Echinochloa crus-galli); test: Test C preemergence, visual plant response rating; details: Test C, 0 is no effect, 100 is complete control
Procedure, shortened: as §1

[12] = system: pigweed (Amaranthus retroflexus); test: Test C preemergence, visual plant response rating; details: Test C, 0 is no effect, 100 is complete control
Procedure, shortened: as §1

[13] = system: foxtail, giant (giant foxtail, Setaria faberi); test: Test C preemergence, visual plant response rating; details: Test C, 0 is no effect, 100 is complete control
Procedure, shortened: as §1

[14] = system: Italian ryegrass (Lolium mutiflorum); test: Test C preemergence, visual plant response rating; details: Test C, 0 is no effect, 100 is complete control
Procedure, shortened: as §1

[15] = system: ragweed (common ragweed, Ambrosia artemisiifolia); test: Test C preemergence, visual plant response rating; details: Test C, 0 is no effect, 100 is complete control
Procedure, shortened: as §1

[16] = system: duck salad (Heteranthera limosa); test: Test D flooded paddy test, visual plant response rating; details: 250 g ai/ha, scale 0 to 100 (0 no effect, 100 complete control), 13 to 15 d
Procedure, shortened: (§2)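 Visual injury scores, 0 (no effect) to 100 (complete control), were assigned after 13 to 15 d in the greenhouse by comparison with controls. Test compounds had been added to paddy water covering soil by 3 cm at the 2-leaf stage.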

[17] = system: barnyardgrass (Echinochloa crus-galli); test: as above; details: 250 g ai/ha, scale 0 to 100 (0 no effect, 100 complete control), 13 to 15 d
Procedure, shortened: as §2

[18] = system: sedge umbrella (small-flower umbrella sedge, Cyperus difformis); test: as above; details: 250 g ai/ha, scale 0 to 100 (0 no effect, 100 complete control), 13 to 15 d
Procedure, shortened: as §2

rice (Oryza sativa) = test: as above; details: 250 g ai/ha, scale 0 to 100 (0 no effect, 100 complete control), 13 to 15 d
Procedure, shortened: as §2

[19] = Test C, postemergence, 125 g ai/ha

| SMILES | Kochia plant response rating (0 to 100 scale) (kochia (Bassia scoparia) [1]; Postemergence, 31 g ai/ha) | Kochia plant response rating (0 to 100 scale) (kochia (Bassia scoparia) [1]; [19]) | Wheat plant response rating (0 to 100 scale) ([2]; Postemergence, 31 g ai/ha) | Wheat plant response rating (0 to 100 scale) [2, 19] | Barnyardgrass plant response rating (0 to 100 scale) ([3]; Postemergence, 31 g ai/ha) | Barnyardgrass plant response rating (0 to 100 scale) [3, 19] | Pigweed plant response rating (0 to 100 scale) ([4]; Postemergence, 31 g ai/ha) | Pigweed plant response rating (0 to 100 scale) [4, 19] | Galium plant response rating (0 to 100 scale) ([5]; Postemergence, 31 g ai/ha) | Galium plant response rating (0 to 100 scale) [5, 19] | Foxtail, Giant plant response rating (0 to 100 scale) ([6]; Postemergence, 31 g ai/ha) | Foxtail, Giant plant response rating (0 to 100 scale) [6, 19] | Blackgrass plant response rating (0 to 100 scale) ([7]; Postemergence, 31 g ai/ha) | Blackgrass plant response rating (0 to 100 scale) [7, 19] | Ryegrass, Italian plant response rating (0 to 100 scale) ([8]; Postemergence, 31 g ai/ha) | Ryegrass, Italian plant response rating (0 to 100 scale) [8, 19] | Ragweed plant response rating (0 to 100 scale) ([9]; Postemergence, 31 g ai/ha) | Ragweed plant response rating (0 to 100 scale) [9, 19] | Corn plant response rating (0 to 100 scale) (corn (Zea mays); Postemergence, 31 g ai/ha) | Corn plant response rating (0 to 100 scale) (corn (Zea mays); [19]) | also measured |
| --- | --- | --- | --- | --- | --- | --- | --- | --- | --- | --- | --- | --- | --- | --- | --- | --- | --- | --- | --- | --- | --- |
| CCO/N=C(/c1c(O)c(C)nn(C)c1=O)c1cccc2cc(Cl)ccc12 [Compound 244] | 20 | 20 | 0 | 0 | 30 | 50 | 80 | 90 | 80 | 90 | 80 | 80 | 40 | 70 | 0 | 10 | 90 | 40 | 10 | 30 | Kochia plant response rating (0 to 100 scale) (kochia (Bassia scoparia) [10]; 31 g ai/ha): 0; Kochia plant response rating (0 to 100 scale) (kochia (Bassia scoparia) [10]; 125 g ai/ha): 0; Barnyardgrass plant response rating (0 to 100 scale) ([11]; 31 g ai/ha): 40; Barnyardgrass plant response rating (0 to 100 scale) ([11]; 125 g ai/ha): 70; Pigweed plant response rating (0 to 100 scale) ([12]; 31 g ai/ha): 50; Pigweed plant response rating (0 to 100 scale) ([12]; 125 g ai/ha): 90; Foxtail, Giant plant response rating (0 to 100 scale) ([13]; 31 g ai/ha): 90; Foxtail, Giant plant response rating (0 to 100 scale) ([13]; 125 g ai/ha): 100; Ryegrass, Italian plant response rating (0 to 100 scale) ([14]; 31 g ai/ha): 0; Ryegrass, Italian plant response rating (0 to 100 scale) ([14]; 125 g ai/ha): 20; Ragweed plant response rating (0 to 100 scale) ([15]; 31 g ai/ha): 10; Ragweed plant response rating (0 to 100 scale) ([15]; 125 g ai/ha): 20; Plant response rating, Ducksalad (Flood) [16]: 50; Plant response rating, Barnyardgrass (Flood) [17]: 10; Plant response rating, Sedge, Umbrella (Flood) [18]: 45; Plant response rating, Rice (Flood) (rice (Oryza sativa)): 15 |
| Cc1nn(C)c(=O)c(/C(=N/OC(C)C)c2cccc3cc(Cl)ccc23)c1O [Compound 245] | 0 | 20 | 0 | 0 | 30 | 50 | 70 | 90 | 70 | 90 | 30 | 80 | 0 | 0 | 0 | 0 | 20 | 70 | 30 | 30 | Kochia plant response rating (0 to 100 scale) (kochia (Bassia scoparia) [10]; 31 g ai/ha): 0; Kochia plant response rating (0 to 100 scale) (kochia (Bassia scoparia) [10]; 125 g ai/ha): 0; Barnyardgrass plant response rating (0 to 100 scale) ([11]; 31 g ai/ha): 30; Barnyardgrass plant response rating (0 to 100 scale) ([11]; 125 g ai/ha): 70; Pigweed plant response rating (0 to 100 scale) ([12]; 31 g ai/ha): 50; Pigweed plant response rating (0 to 100 scale) ([12]; 125 g ai/ha): 100; Foxtail, Giant plant response rating (0 to 100 scale) ([13]; 31 g ai/ha): 60; Foxtail, Giant plant response rating (0 to 100 scale) ([13]; 125 g ai/ha): 90; Ryegrass, Italian plant response rating (0 to 100 scale) ([14]; 31 g ai/ha): 0; Ryegrass, Italian plant response rating (0 to 100 scale) ([14]; 125 g ai/ha): 0; Ragweed plant response rating (0 to 100 scale) ([15]; 31 g ai/ha): 10; Ragweed plant response rating (0 to 100 scale) ([15]; 125 g ai/ha): 40; Plant response rating, Ducksalad (Flood) [16]: 30; Plant response rating, Barnyardgrass (Flood) [17]: 15; Plant response rating, Sedge, Umbrella (Flood) [18]: 50; Plant response rating, Rice (Flood) (rice (Oryza sativa)): 25 |
| C=CCO/N=C(/c1c(O)c(C)nn(C)c1=O)c1cccc2cc(Cl)ccc12 [Compound 246] | 0 | 20 | 0 | 0 | 40 | 70 | 70 | 80 | 80 | 90 | 70 | 70 | 50 | 70 | 0 | 30 | 80 | 100 | 20 | 10 | Kochia plant response rating (0 to 100 scale) (kochia (Bassia scoparia) [10]; 31 g ai/ha): 0; Kochia plant response rating (0 to 100 scale) (kochia (Bassia scoparia) [10]; 125 g ai/ha): 0; Barnyardgrass plant response rating (0 to 100 scale) ([11]; 31 g ai/ha): 60; Barnyardgrass plant response rating (0 to 100 scale) ([11]; 125 g ai/ha): 80; Pigweed plant response rating (0 to 100 scale) ([12]; 31 g ai/ha): 90; Pigweed plant response rating (0 to 100 scale) ([12]; 125 g ai/ha): 100; Foxtail, Giant plant response rating (0 to 100 scale) ([13]; 31 g ai/ha): 80; Foxtail, Giant plant response rating (0 to 100 scale) ([13]; 125 g ai/ha): 80; Ryegrass, Italian plant response rating (0 to 100 scale) ([14]; 31 g ai/ha): 30; Ryegrass, Italian plant response rating (0 to 100 scale) ([14]; 125 g ai/ha): 60; Ragweed plant response rating (0 to 100 scale) ([15]; 31 g ai/ha): 100; Ragweed plant response rating (0 to 100 scale) ([15]; 125 g ai/ha): 90; Plant response rating, Ducksalad (Flood) [16]: 95; Plant response rating, Barnyardgrass (Flood) [17]: 90; Plant response rating, Sedge, Umbrella (Flood) [18]: 100; Plant response rating, Rice (Flood) (rice (Oryza sativa)): 90 |
| C#CCO/N=C(/c1cccc(/C=C/Cl)c1)c1c(O)c(C)nn(C)c1=O [Compound 253] | 20 | 60 | 0 | 30 | 10 | 40 | 50 | 70 | 30 | 50 | 20 | 50 | 20 | 60 | 10 | 60 | 30 | 40 | 0 | 0 | Kochia plant response rating (0 to 100 scale) (kochia (Bassia scoparia) [10]; 31 g ai/ha): 0; Kochia plant response rating (0 to 100 scale) (kochia (Bassia scoparia) [10]; 125 g ai/ha): 0; Barnyardgrass plant response rating (0 to 100 scale) ([11]; 31 g ai/ha): 0; Barnyardgrass plant response rating (0 to 100 scale) ([11]; 125 g ai/ha): 0; Pigweed plant response rating (0 to 100 scale) ([12]; 31 g ai/ha): 0; Pigweed plant response rating (0 to 100 scale) ([12]; 125 g ai/ha): 80; Foxtail, Giant plant response rating (0 to 100 scale) ([13]; 31 g ai/ha): 0; Foxtail, Giant plant response rating (0 to 100 scale) ([13]; 125 g ai/ha): 10; Ryegrass, Italian plant response rating (0 to 100 scale) ([14]; 31 g ai/ha): 0; Ryegrass, Italian plant response rating (0 to 100 scale) ([14]; 125 g ai/ha): 30; Ragweed plant response rating (0 to 100 scale) ([15]; 31 g ai/ha): 0; Ragweed plant response rating (0 to 100 scale) ([15]; 125 g ai/ha): 0; Plant response rating, Ducksalad (Flood) [16]: 0; Plant response rating, Barnyardgrass (Flood) [17]: 0; Plant response rating, Sedge, Umbrella (Flood) [18]: 0; Plant response rating, Rice (Flood) (rice (Oryza sativa)): 0 |
